Assays:
MKN45 cells = experiment: MKN45 cell proliferation assay (Cell-Titer-Glo, 120 h); assay type: cell-based; details: for EC50: Homo sapiens, MKN-45, 120 h, Cell-Titer-Glo, growth inhibition, read-out: MKN45 Cell Prolif. 120 hr (EC50); for MKN45 Cell Prolif. 120 hr (Ymin-Obs): minimal percent of DMSO control observed in the concentrations tested
Method in brief: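 Cells seeded at 400/well onto pre-printed 10-point half-log dilutions (top 1 or 10 uM, 0.1% DMSO final), in triplicate, and grown 120 h at 37 C. Viability by Cell-Titer-Glo luminescence, blank-subtracted and normalised to DMSO; EC50 from four-parameter logistic fit, with observed minimal % of control recorded as Ymin-obs.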

WEE1 = target: T1, WEE1 (Homo sapiens, UniProt P30291+Q96SW2); experiment: WEE1-ePL degradation assay (LentiX-WEE1-ePL-GSPT1-ND cells, InCELL Hunter luminescence, 4 h); assay type: cell-based; details: 293T-LentiX WEE1-ePL cells; for 293T-LentiX WEE1-ePL Degradation 4 hr (Ymin): lower limit of the fit (0 = luciferase inhibitor, Ymax = DMSO control); for DC50: read-out: 293T-LentiX WEE1-ePL Degradation 4 hr (EC50)
T1 construct: C-terminal ePL-tagged (DiscoverX, Fremont, CA) full-length WEE1 expression construct; expressed in transfected cells; host or cells: LentiX-HEK293T (Invitrogen), lentiviral transduction; co-expressing GSPT1-GN (G576N, lacking the first 158 amino acids)
Method in brief: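 Luminescent readout (InCELL Hunter, 30 min RT) of WEE1-ePL levels in transduced HEK293T cells after 4 h compound exposure at 37 °C. Dosing: 10 points, 3-fold steps, top 1 uM or 10 uM. EC50 from four-parameter logistic fit; Ymax set by DMSO.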

Row | Structure (SMILES) | EC50 (MKN45 cells) | 293T-LentiX WEE1-ePL Degradation 4 hr (Ymin) (WEE1) | DC50 (WEE1) | MKN45 Cell Prolif. 120 hr (Ymin-Obs) (MKN45 cells)
1 | O=C1CCC(N2Cc3cc(O[C@H]4CCN(Cc5cnc6c(c5)CCO6)C4)ccc3C2=O)C(=O)N1 (stereo partly drawn) [3-(5-{[(3S)-1-({2H,3H-furo[2,3-b]pyridin-5-yl}methyl)pyrrolidin-3-yl]oxy}-1-oxo-2,3-dihydro-1H-isoindol-2-yl)piperidine-2,6-dione] | 2.04 µM | 42 | 0.0601 µM | 40.58
2 | O=C1CCC(N2Cc3cc(O[C@H]4CCN(Cc5cc6c(cn5)OCC6)C4)ccc3C2=O)C(=O)N1 (stereo partly drawn) [3-(5-{[(3S)-1-({2H,3H-furo[2,3-c]pyridin-5-yl}methyl)pyrrolidin-3-yl]oxy}-1-oxo-2,3-dihydro-1H-isoindol-2-yl)piperidine-2,6-dione] | 0.751 µM | 34 | 0.0208 µM | 25.455
3 | O=C1CCC(N2Cc3cc(O[C@H]4CCN(Cc5cnc6ccccn56)C4)ccc3C2=O)C(=O)N1 (stereo partly drawn) [3-(5-{[(3S)-1-({imidazo[1,2-a]pyridin-3-yl}methyl)pyrrolidin-3-yl]oxy}-1-oxo-2,3-dihydro-1H-isoindol-2-yl)piperidine-2,6-dione] | 0.933 µM | 33.52 | 0.15 µM | 21.75
4 | O=C1CCC(N2Cc3cc(O[C@H]4CCN(Cc5ccc6ncccc6n5)C4)ccc3C2=O)C(=O)N1 (stereo partly drawn) [3-(5-{[(3S)-1-[(1,5-naphthyridin-2-yl)methyl]pyrrolidin-3-yl]oxy}-1-oxo-2,3-dihydro-1H-isoindol-2-yl)piperidine-2,6-dione] | 2.52 µM | 37 | 0.0279 µM | 54.03
5 | O=C1CCC(N2Cc3cc(O[C@H]4CCN(Cc5cnc6cccnc6c5)C4)ccc3C2=O)C(=O)N1 (stereo partly drawn) [3-(5-{[(3S)-1-[(1,5-naphthyridin-3-yl)methyl]pyrrolidin-3-yl]oxy}-1-oxo-2,3-dihydro-1H-isoindol-2-yl)piperidine-2,6-dione] | 0.561 µM | 66 | 0.0754 µM | 73.34
6 | O=C1CCC(N2Cc3cc(O[C@H]4CCN(Cc5cc6ncccc6cn5)C4)ccc3C2=O)C(=O)N1 (stereo partly drawn) [3-(5-{[(3S)-1-[(1,6-naphthyridin-7-yl)methyl]pyrrolidin-3-yl]oxy}-1-oxo-2,3-dihydro-1H-isoindol-2-yl)piperidine-2,6-dione] | 0.96 µM | 67.53 | 0.122 µM | 84.48
7 | O=C1CCC(N2Cc3cc(O[C@H]4CCN(Cc5ccc6cccnc6n5)C4)ccc3C2=O)C(=O)N1 (stereo partly drawn) [3-(5-{[(3S)-1-[(1,8-naphthyridin-2-yl)methyl]pyrrolidin-3-yl]oxy}-1-oxo-2,3-dihydro-1H-isoindol-2-yl)piperidine-2,6-dione] | 1.02 µM | 75 | 0.292 µM | 65.94
8 | O=C1CCC(N2Cc3cc(O[C@H]4CCN(Cc5cnc6ncccc6c5)C4)ccc3C2=O)C(=O)N1 (stereo partly drawn) [3-(5-{[(3S)-1-[(1,8-naphthyridin-3-yl)methyl]pyrrolidin-3-yl]oxy}-1-oxo-2,3-dihydro-1H-isoindol-2-yl)piperidine-2,6-dione] | 0.547 µM | 27.365 | 0.0706 µM | 12.27
9 | CN1CCCc2c(CN3CC[C@H](Oc4ccc5c(c4)CN(C4CCC(=O)NC4=O)C5=O)C3)cncc21 (stereo partly drawn) [3-(5-{[(3S)-1-[(1-methyl-1,2,3,4-tetrahydro-1,7-naphthyridin-5-yl)methyl]pyrrolidin-3-yl]oxy}-1-oxo-2,3-dihydro-1H-isoindol-2-yl)piperidine-2,6-dione] | 0.313 µM | 40 | 0.0196 µM | 43.26
10 | Cn1ncc2cc(CN3CC[C@H](Oc4ccc5c(c4)CN(C4CCC(=O)NC4=O)C5=O)C3)ccc21 (stereo partly drawn) [3-(5-{[(3S)-1-[(1-methyl-1H-indazol-5-yl)methyl]pyrrolidin-3-yl]oxy}-1-oxo-2,3-dihydro-1H-isoindol-2-yl)piperidine-2,6-dione] | > 10 µM | 61 | 0.0688 µM | 86.69
11 | Cc1nc(CN2CC[C@H](Oc3ccc4c(c3)CN(C3CCC(=O)NC3=O)C4=O)C2)cc2ccccc12 (stereo partly drawn) [3-(5-{[(3S)-1-[(1-methylisoquinolin-3-yl)methyl]pyrrolidin-3-yl]oxy}-1-oxo-2,3-dihydro-1H-isoindol-2-yl)piperidine-2,6-dione] | 5.04 µM | 47.56 | 0.031 µM | 50.77
12 | O=C1CCC(N2Cc3cc(O[C@H]4CCN(Cc5cc6cnccc6cn5)C4)ccc3C2=O)C(=O)N1 (stereo partly drawn) [3-(5-{[(3S)-1-[(2,6-naphthyridin-3-yl)methyl]pyrrolidin-3-yl]oxy}-1-oxo-2,3-dihydro-1H-isoindol-2-yl)piperidine-2,6-dione] | 0.544 µM | 34.11 | 0.0399 µM | 24.28

Now those with a lower EC50 (MKN45 cells), led by results:

Row | EC50 (MKN45 cells) | 293T-LentiX WEE1-ePL Degradation 4 hr (Ymin) (WEE1) | DC50 (WEE1) | Structure (SMILES) | MKN45 Cell Prolif. 120 hr (Ymin-Obs) (MKN45 cells)
13 | 0.00537 µM | 23.84 | 0.122 µM | O=C1CCC(N2Cc3cc(O[C@H]4CCN(Cc5ccc6nc(COC7COC7)ccc6c5)C4)ccc3C2=O)C(=O)N1 (stereo partly drawn) [3-(5-{[(3S)-1-({2-[(oxetan-3-yloxy)methyl]quinolin-6-yl}methyl)pyrrolidin-3-yl]oxy}-1-oxo-2,3-dihydro-1H-isoindol-2-yl)piperidine-2,6-dione] | 9.252
14 | 0.0035 µM | 32 | 0.00182 µM | CN(c1ccc2cc(CN3CC[C@H](Oc4ccc5c(c4)CN(C4CCC(=O)NC4=O)C5=O)C3)ccc2n1)C1CCOCC1 (stereo partly drawn) [3-(5-{[(3S)-1-({2-[methyl(oxan-4-yl)amino]quinolin-6-yl}methyl)pyrrolidin-3-yl]oxy}1-oxo-2,3-dihydro-1H-isoindol-2-yl)piperidine-2,6-dione] | 8.45
15 | 0.000738 µM | 28 | 0.002 µM | O=C1CCC(N2Cc3cc(O[C@H]4CCN(Cc5cc(-c6cccc(C7=CCOCC7)c6)ccn5)C4)ccc3C2=O)C(=O)N1 (stereo partly drawn) [3-(5-{[(3S)-1-({4-[3-(3,6-dihydro-2H-pyran-4-yl)phenyl]pyridin-2-yl}methyl)pyrrolidin-3-yl]oxy}-1-oxo-2,3-dihydro-1H-isoindol-2-yl)piperidine-2,6-dione] | 7.53
16 | 0.00733 µM | 28 | 0.00232 µM | O=C1CCC(N2Cc3cc(O[C@H]4CCN(Cc5cc(-c6cccc(N7CCOCC7)c6)ccn5)C4)ccc3C2=O)C(=O)N1 (stereo partly drawn) [3-(5-{[(3S)-1-({4-[3-(morpholin-4-yl)phenyl]pyridin-2-yl}methyl)pyrrolidin-3-yl]oxy}-1-oxo-2,3-dihydro-1H-isoindol-2-yl)piperidine-2,6-dione] | 4.54
17 | 0.000192 µM | 31 | 0.00133 µM | O=C1CCC(N2Cc3cc(O[C@H]4CCN(Cc5cc(-c6ccc(C7CCOCC7)cc6)ccn5)C4)ccc3C2=O)C(=O)N1 (stereo partly drawn) [3-(5-{[(3S)-1-({4-[4-(oxan-4-yl)phenyl]pyridin-2-yl}methyl)pyrrolidin-3-yl]oxy}-1-oxo-2,3-dihydro-1H-isoindol-2-yl)piperidine-2,6-dione] | 6.39
18 | 0.0449 µM | 42 | 0.00971 µM | Cc1cc(CN2CC[C@H](Oc3ccc4c(c3)CN(C3CCC(=O)NC3=O)C4=O)C2)ncc1OCC1CCOCC1 (stereo partly drawn) [3-(5-{[(3S)-1-({4-methyl-5-[(oxan-4-yl)methoxy]pyridin-2-yl}methyl)pyrrolidin-3-yl]oxy}-1-oxo-2,3-dihydro-1H-isoindol-2-yl)piperidine-2,6-dione] | 16.9
19 | 0.0564 µM | 33 | 0.0967 µM | CNC1(c2ccc3cc(CN4CC[C@H](Oc5ccc6c(c5)CN(C5CCC(=O)NC5=O)C6=O)C4)ncc3c2)COC1 (stereo partly drawn) [3-(5-{[(3S)-1-({7-[3-(methylamino)oxetan-3-yl]isoquinolin-3-yl}methyl)pyrrolidin-3-yl]oxy}-1-oxo-2,3-dihydro-1H-isoindol-2-yl)piperidine-2,6-dione] | 7.77
20 | 0.0923 µM | 26.94 | 0.0208 µM | O=C1CCC(N2Cc3cc(O[C@H]4CCN(Cc5cnc6cnccc6c5)C4)ccc3C2=O)C(=O)N1 (stereo partly drawn) [3-(5-{[(3S)-1-[(1,7-naphthyridin-3-yl)methyl]pyrrolidin-3-yl]oxy}-1-oxo-2,3-dihydro-1H-isoindol-2-yl)piperidine-2,6-dione] | 9.14
21 | 0.102 µM | 26.505 | 0.0147 µM | O=C1CCC(N2Cc3cc(O[C@H]4CCN(Cc5cc6cccnc6cn5)C4)ccc3C2=O)C(=O)N1 (stereo partly drawn) [3-(5-{[(3S)-1-[(1,7-naphthyridin-6-yl)methyl]pyrrolidin-3-yl]oxy}-1-oxo-2,3-dihydro-1H-isoindol-2-yl)piperidine-2,6-dione] | 9.59

Source: patent US20240067632A1, “WEE1 Degrading Compounds and Uses Thereof” (Bristol-Myers Squibb Company, priority 2022, published 2024)
